Data reported in US20240366649A1, “4-ETHYNYL-3-HYDROXY-TETRAHYDROFURANYL-ADENINE PHOSPHORAMIDATES AND RELATED COMPOUNDS AND THEIR USE IN TREATING MEDICAL CONDITIONS” (ROME THERAPEUTICS, INC., priority 2021, published 2024).
Blank lines part the entries; values can stand above or below the compound they belong to.

What was measured:
[1] = tested on: IFN-β production in PBMCs; test: Decitabine-stimulated human PBMC assay; assay type: cell-based; settings: anti-CD3/anti-CD28, 10 μM decitabine, 5 days
Method: EasySep buffer (32 mL, Stem Cell, cat. #20144) was used to dilute 8 mL of LRSC buffy coat (from fresh Leukopak) with gentle mixing. The diluted buffy coat (20 mL) was transferred into each of two SepMate 50 tubes, and the tubes were filled with 15 mL of Lyphoprep (Stem Cell, ct. #07851) density gradient. The SepMate tubes were then centrifuged at 1200G for 10 minutes at room temperature with the brake on. The top layer of supernatant was collected in SepMate tubes by quickly pouring it into a new 50 mL conical tube. The PBMCs were washed with EasySep buffer ×2 by centrifuging at 300G for 5 minutes. The cells were resuspended in 30 mL of EasySep and centrifuged at 100G for 5 minutes with the brake off, and the platelets were removed. The cells were then resuspended in 6 mL of 1×RBC lysis buffer (InvitroGen) and incubated at 37° C. for 5 minutes. Then, 25 mL of EasySep buffer was mixed into the tube and it was centrifuged at 300G for 5 minutes. The cells were resuspended in 10 mL of EasySep buffer and the cells were then counted with Cellometer (AO/PI). The PBMCs were resuspended in RPMI1640 (ThermoFisher)+10% FBS (HyClone)+p/s at 3×10^6/mL. The PBMCs (100 μL, 300 k PBMCs) were then seeded in a 96-well flat bottom microplate (Corning) that had been precoated with 100 μL of anti-CD3 antibody (10 μg/mL in PBS, Biolegend) or PBS at 4° C., one day before the assay was commenced. […]

[2] = target: T1, HERV-K reverse transcriptase (Homo sapiens, UniProt V9H0F6); test: Homogeneous time-resolved fluorescence (HTRF) HERV-K RT assay; assay type: biochemical; settings: HERV-K reverse transcriptase (2-596)-8His protein, read-out: IC50 for inhibiting HERV-K reverse transcriptase
T1 construct: fused on or other part: C-terminal 8His tag
Method: The HERV-K reverse transcriptase homogeneous time-resolved fluorescence (HTRF) assay was performed in a 384-well format with HERV-K reverse transcriptase (2-596)-8His protein. Baculoviruses were created using Bac-to-Bac technology (Invitrogen). pFastBac donor plasmids containing HERV-K reverse transcriptase sequence (NCBI GenBank number AAC63291.1, J. Virology (1999) Vol. 73, No. 3, pp. 2365-2375) were transformed into DH10 Bac cells following the manufacturer's instructions. Recombinant bacmids were then isolated clonally and transfected into SF9 cells with lipofectin. HERV-K reverse transcriptase was expressed in the SF9 insect cells and then purified using immobilized metal affinity chromatography (IMAC) followed by size-exclusion chromatography (SEC). […]
(§1) After incubating at 25° C. for 30 minutes, the detection reagent 20 mM EDTA with streptavidin-terbium cryptate (Cisbio Bioassay) in the PPI buffer (Cisbio Bioassay) was added, and the mixture was incubated at 25° C. for 60 minutes. At the end of the incubation, fluorescence was read at ex/em=337/485 nm and ex/em=337/520 nm on an Envision 2104 plate reader (Perkin Elmer). The fluorescence ratio at 520/485 nm was used for the calculation. […] The IC50 was calculated by fitting the compound dose inhibition curve with a 4-parameter non-linear regression equation.

[3] = tested on: Pharyngeal cancer FaDu cells; test: Cancer cell viability assay with 3D cell colonies (CellTiter-Glo), FaDu; assay type: cell-based; settings: 3D methylcellulose colonies, 7 days
Method: (§2) Cancer cell lines were cultured in the following media: • Ovarian cancer OVCAR-8 cells—RPMI media containing 10% FBS • Ovarian cancer SK-OV-3 cells—McCoy's 5a media containing 10% FBS • Ovarian cancer SW756 cells—L-15 (100% air)+10% FBS • Esophageal cancer TE-1 cells—RPMI-1640+10% FBS • Esophageal cancer KYSE-410 cells—RPMI-1640+5˜10% FBS • Esophageal cancer KYSE-70 cells—RPMI-1640+10% h.i.FBS. • Pharyngeal cancer FaDu cells—MEM+0.01 mM NEAA+10% FBS
(§3) Cell colony formation was tested using a 3D methylcellulose-based CellTiter-Glo (CTG) viability assay (Cat. No: G7573, Promega). Briefly, cells were inoculated into 96-well plates (at 1,500 cells per well) into a solution of 0.65% methylcellulose in growth media and incubated overnight at 37° C. in 5% CO2. The next day, serially diluted test compound (islatravir, 4′-ethynyl-2-fluoro-2′-deoxyadenosine) or positive control (cisplatin, Cat. No. 6J015A89, Qilu Pharma) were added at the indicated concentrations, and the cells were incubated for 7 days. On day seven, 100 μL of CTG reagent was added, and the plates were incubated at room temperature for 20 min. Luminescence was read on an Envision Multi Label Reader according to manufacturer's instructions. IC50 values were determined using the following calculation: […]

[4] = tested on: Esophageal cancer KYSE-70 cells; test: Cancer cell viability assay with 3D cell colonies (CellTiter-Glo), KYSE-70; assay type: cell-based; settings: KYSE-70, 3D methylcellulose colonies, 7 days
Method: as §2, §3

[5] = tested on: Ovarian cancer OVCAR-8 cells; test: Cancer cell viability assay with 3D cell colonies (CellTiter-Glo), OVCAR-8; assay type: cell-based; settings: OVCAR-8, 3D methylcellulose colonies, 7 days
Method: as §2, §3

[6] = tested on: Esophageal cancer TE-1 cells; test: Cancer cell viability assay with 3D cell colonies (CellTiter-Glo), TE-1; assay type: cell-based; settings: TE-1, 3D methylcellulose colonies, 7 days
Method: as §2, §3

[7] = tested on: Ovarian cancer SK-OV-3 cells; test: Cancer cell viability assay with 3D cell colonies (CellTiter-Glo), SK-OV-3; assay type: cell-based; settings: SK-OV-3, 3D methylcellulose colonies, 7 days
Method: as §2, §3

[8] = tested on: Esophageal cancer KYSE-410 cells; test: Cancer cell viability assay with 3D cell colonies (CellTiter-Glo), KYSE-410; assay type: cell-based; settings: KYSE-410, 3D methylcellulose colonies, 7 days
Method: as §2, §3

[9] = tested on: Ovarian cancer SW756 cells; test: Cancer cell viability assay with 3D cell colonies (CellTiter-Glo), SW756; assay type: cell-based; settings: SW756, 3D methylcellulose colonies, 7 days
Method: as §2, §3

[10] = target: LINE1 reverse transcriptase (Homo sapiens, UniProt O00370); test: Homogeneous time-resolved fluorescence (HTRF) LINE1 RT assay; assay type: biochemical; set-up: recombinant MBP-tagged LINE1 protein (238-1061); MBP; made in house; settings: recombinant MBP-tagged LINE1 protein (238-1061), read-out: IC50 for inhibiting LINE1 reverse transcriptase
Method: The LINE1 reverse transcriptase homogeneous time-resolved fluorescence (HTRF) assay was performed with recombinant MBP-tagged LINE1 protein (238-1061) (generated and purified according to procedures in Dai L. et al. BMC Biochemistry 2011; 12:18) in a 384-well format. Test compound was serially diluted in DMSO and further diluted in the assay buffer (50 mM Tris-HCl, 50 mM KCl, 10 mM MgCl2, 10 mM DTT, pH 8.1) to achieve a final DMSO concentration of 1%. The serially diluted compound was mixed with 64 ng/well of LINE1 enzyme, 5 nM of pre-annealed template/biotin-primer pair (synthesized at Generay Biotechnology), 10 nM of Fluorescein-12-dATP fluorescent probe (Perkin Elmer), and 1 μM dGTP/dCTP/dTTP (Thermo Fisher Scientific) in the assay buffer. The template/biotin-primer sequences were as follows:
as §1, with “for 60” for “for 30”, “reagent (20” for “reagent 20”, “streptavidin-terbium cryptate, Cisbio” for “streptavidin-terbium cryptate (Cisbio”, “for 30” for “for 60”

T1 sequence (V9H0F6 entry or part of it): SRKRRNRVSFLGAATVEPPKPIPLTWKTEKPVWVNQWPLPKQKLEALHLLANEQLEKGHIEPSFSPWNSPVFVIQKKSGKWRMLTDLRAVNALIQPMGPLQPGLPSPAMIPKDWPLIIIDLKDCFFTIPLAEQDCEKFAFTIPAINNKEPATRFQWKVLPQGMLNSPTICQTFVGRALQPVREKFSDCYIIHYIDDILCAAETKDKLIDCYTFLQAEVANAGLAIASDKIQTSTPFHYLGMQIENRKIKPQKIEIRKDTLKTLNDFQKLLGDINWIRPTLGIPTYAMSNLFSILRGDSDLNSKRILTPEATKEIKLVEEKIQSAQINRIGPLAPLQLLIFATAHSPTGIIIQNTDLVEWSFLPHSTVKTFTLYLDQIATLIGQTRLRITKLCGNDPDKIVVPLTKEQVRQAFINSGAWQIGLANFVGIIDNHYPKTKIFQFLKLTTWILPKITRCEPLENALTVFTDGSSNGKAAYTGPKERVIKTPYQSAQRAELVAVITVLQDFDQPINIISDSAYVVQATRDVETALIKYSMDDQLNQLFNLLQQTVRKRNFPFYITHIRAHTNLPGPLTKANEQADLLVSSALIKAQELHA

IC50 [2]: 0.0178 µM
Compound: C#C[C@]1(COP(=O)(O)OP(=O)(O)OP(=O)(O)O)O[C@@H](n2cnc3c(N)nc(F)nc32)C[C@@H]1O [drawing 279]

IC50 [10]: 0.023 µM
Compound: C#C[C@]1(COP(=O)(O)OP(=O)(O)OP(=O)(O)O)O[C@@H](n2cnc3c(N)nc(F)nc32)C[C@@H]1O [drawing 277]

IC50 [10]: 0.02 µM
Compound: C#C[C@]1(COP(=O)(O)OP(=O)(O)OP(=O)(O)O)O[C@@H](n2cnc3c(N)nc(Cl)nc32)C[C@@H]1O [drawing 278]

The next lines start with the compound.

Compound: C#C[C@]1(CO)O[C@@H](n2cnc3c(N)nc(Cl)nc32)C[C@@H]1O [4′-ethynyl-2-chloro-2′-deoxyadenosine]
production of IFN-β [1]: activated production of IFN-β

Compound: C#C[C@]1(COP(=O)(O)OP(=O)(O)OP(=O)(O)O)O[C@@H](n2cnc3c(N)nc(Cl)nc32)C[C@@H]1O [drawing 280]
IC50 [2]: 0.31 µM

Compound: N.N.[Cl][Pt][Cl] [Cisplatin, cisplatin]
IC50 [3]: ≤ 10 µM
IC50 [4]: ≤ 10 µM
IC50 [5]: ≤ 10 µM
IC50 [6]: ≤ 10 µM
IC50 [7]: ≤ 10 µM
IC50 [8]: > 30 µM
IC50 [9]: ≤ 10 µM
